The NIST ThermoML archive (doi:10.1016/j.jct.2016.03.010)

Experiment: mn = molality of the nth substance listed, in mol/kg
Details: 101 kPa, Liquid; for viscosity: Capillary tube (Ostwald / Ubbelohde) method; for mass density: Vibrating tube method

O=C(O)c1cccnc1 [3-carboxylpyridine] + O
Details	mass density, 298.15 K [kg/m3]	mass density, 308.15 K [kg/m3]	mass density, 318.15 K [kg/m3]	viscosity, 298.15 K [mPa·s]	viscosity, 308.15 K [mPa·s]	viscosity, 318.15 K [mPa·s]
m1 = 0.0202	997.92	994.89	991.06	0.8951	0.7224	0.5972
m1 = 0.0365	998.6	995.55	991.69	0.8988	0.725	0.5992
m1 = 0.0529	999.27	996.21	992.33	0.9015	0.7275	0.601
m1 = 0.0695	999.95	996.87	992.96	0.905	0.7308	0.6051
m1 = 0.0863	1000.62	997.52	993.59	0.9088	0.734	0.6074
m1 = 0.1032	1001.3	998.17	994.23	0.9119	0.7368	0.6094
